According to patent US6525001B1, “Substituted pyrimidine and pyridine herbicides” (Mid-American Commercialization Corporation, priority 1997, dated 2003):

Legend:
Assay type in all cases: in vivo
[1] = test system: pigweed (Amaranthus retroflexus); assay: Test B pre-/postemergence; set-up: key: 0 is no effect; 10 is complete control
How it was run: (§1)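 Scored visually 0 (none) to 10 (complete control) against untreated plants after twelve to sixteen greenhouse days. Test chemicals, formulated in surfactant-containing non-phytotoxic solvent, applied to soil after planting and, separately, onto 1- to 4-leaf (2–18 cm) plants.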

[2] = test system: velvetleaf (Abutilon theophrasti); assay: Test B pre-/postemergence; set-up: key: 0 is no effect; 10 is complete control
How it was run: as §1

[3] = test system: wheat (Triticum aestivum); assay: Test B pre-/postemergence; set-up: key: 0 is no effect; 10 is complete control
How it was run: as §1

[4] = test system: giant foxtail (Setaria faberii); assay: Test B pre-/postemergence; set-up: key: 0 is no effect; 10 is complete control
How it was run: as §1

[5] = test system: momingglory (Ipomoea hederacea); assay: Test B pre-/postemergence; set-up: key: 0 is no effect; 10 is complete control
How it was run: as §1

[6] = test system: soybean (Glycine max); assay: Test B pre-/postemergence; set-up: key: 0 is no effect; 10 is complete control
How it was run: as §1

[7] = test system: bedstraw (Galium aparine); assay: Test B pre-/postemergence; set-up: key: 0 is no effect; 10 is complete control; conditions: Postemergence
How it was run: as §1

[8] = test system: corn (Zea mays); assay: Test B pre-/postemergence; set-up: key: 0 is no effect; 10 is complete control; conditions: for Corn plant response rating: Preemergence
How it was run: as §1

[9] = test system: crabgrass (Digitaria sanguinalis); assay: Test B pre-/postemergence; set-up: key: 0 is no effect; 10 is complete control; conditions: for Crabgrass plant response rating: Preemergence
How it was run: as §1

[10] = test system: wild oat (Avena fatua); assay: Test B pre-/postemergence; set-up: key: 0 is no effect; 10 is complete control
How it was run: as §1

[11] = test system: cocklebur (Xanthium strumarium); assay: Test B pre-/postemergence; set-up: key: 0 is no effect; 10 is complete control; conditions: for Cocklebur plant response rating: Preemergence
How it was run: as §1

[12] = test system: sugar beet (Beta vulgaris); assay: Test B pre-/postemergence; set-up: key: 0 is no effect; 10 is complete control
How it was run: as §1

[13] = test system: purple nutsedge (Cyperus rotundus); assay: Test B pre-/postemergence; set-up: key: 0 is no effect; 10 is complete control
How it was run: as §1

[14] = test system: broadleaf signalgrass (Brachiaria decumbens); assay: Test B pre-/postemergence; set-up: key: 0 is no effect; 10 is complete control; conditions: for B. signalgrass plant response rating: Preemergence
How it was run: as §1

[15] = test system: blackgrass (Alopecurus myosuroides); assay: Test B pre-/postemergence; set-up: key: 0 is no effect; 10 is complete control; conditions: for Blackgrass plant response rating: Preemergence
How it was run: as §1

[16] = test system: rape (Brassica napus); assay: Test B pre-/postemergence; set-up: key: 0 is no effect; 10 is complete control
How it was run: as §1

[17] = test system: bamyardgrass (Echinochloa crus-galli); assay: Test B flood test
How it was run: (§2)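 Flood test on plants grown to the 2-leaf stage; treated plants kept in greenhouse twelve to sixteen days, then visually rated against controls on a 0 (no effect) to 10 (complete control) scale.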

[18] = test system: rice (Oryza sativa); assay: Test B flood test
How it was run: as §2

[19] = test system: duck salad (Heteranthera limosa); assay: Test B flood test
How it was run: as §2

[20] = test system: smallflower flatsedge (Cyperus difformis); assay: Test B flood test
How it was run: as §2

[21] = Rate 250 g/ha, Postemergence (so in the source)
[22] = Rate 62 g/ha, Postemergence (flood test)
[23] = Rate 125 g/ha, Postemergence, flood test
[24] = Rate 250 g/ha, Postemergence (flood test species)
[25] = Rate 125 g/ha, Postemergence section (flood test species)

SMILES: Cc1cnc(-c2ccc(F)c(Cl)c2)nc1Cc1cccc(C#N)c1 [Compound 40]
- Plant response rating, Redroot pigweed ([1]; Rate 62 g/ha, Postemergence): 2
- Redroot pigweed plant response rating ([1]; Rate 62 g/ha, Preemergence): 0
- Redroot pigweed plant response rating ([1]; Rate 125 g/ha, Postemergence): 3
- Redroot pigweed plant response rating ([1]; Rate 125 g/ha, Preemergence): 1
- Plant response rating, Redroot pigweed ([1]; Rate 250 g/ha, Postemergence): 6
- Plant response rating, Redroot pigweed [1, 21]: 2
- Plant response rating, Velvetleaf ([2]; Rate 62 g/ha, Postemergence): 1
- Velvetleaf plant response rating ([2]; Rate 62 g/ha, Preemergence): 0
- Velvetleaf plant response rating ([2]; Rate 125 g/ha, Postemergence): 2
- Plant response rating, Velvetleaf ([2]; Rate 125 g/ha, Preemergence): 0
- Plant response rating, Velvetleaf ([2]; Rate 250 g/ha, Postemergence): 2
- Plant response rating, Velvetleaf [2, 21]: 1
- Wheat plant response rating ([3]; Rate 62 g/ha, Postemergence): 1
- Wheat plant response rating ([3]; Rate 62 g/ha, Preemergence): 0
- Wheat plant response rating ([3]; Rate 125 g/ha, Postemergence): 1
- Plant response rating, Wheat ([3]; Rate 125 g/ha, Preemergence): 0
- Plant response rating, Wheat ([3]; Rate 250 g/ha, Postemergence): 2
- Plant response rating, Wheat [3, 21]: 0
- Plant response rating, Giant foxtail ([4]; Rate 62 g/ha, Postemergence): 0
- Giant foxtail plant response rating ([4]; Rate 62 g/ha, Preemergence): 0
- Giant foxtail plant response rating ([4]; Rate 125 g/ha, Postemergence): 0
- Giant foxtail plant response rating ([4]; Rate 125 g/ha, Preemergence): 1
- Plant response rating, Giant foxtail ([4]; Rate 250 g/ha, Postemergence): 2
- Plant response rating, Giant foxtail [4, 21]: 3
- Plant response rating, Morningglory ([5]; Rate 62 g/ha, Postemergence): 2
- Morningglory plant response rating ([5]; Rate 62 g/ha, Preemergence): 0
- Morningglory plant response rating ([5]; Rate 125 g/ha, Postemergence): 2
- Morningglory plant response rating ([5]; Rate 125 g/ha, Preemergence): 1
- Plant response rating, Morningglory ([5]; Rate 250 g/ha, Postemergence): 5
- Plant response rating, Morningglory [5, 21]: 2
- Plant response rating, Soybean ([6]; Rate 62 g/ha, Postemergence): 2
- Soybean plant response rating ([6]; Rate 62 g/ha, Preemergence): 0
- Soybean plant response rating ([6]; Rate 125 g/ha, Postemergence): 2
- Plant response rating, Soybean ([6]; Rate 125 g/ha, Preemergence): 0
- Plant response rating, Soybean ([6]; Rate 250 g/ha, Postemergence): 2
- Plant response rating, Soybean [6, 21]: 0
- Plant response rating, Bedstraw ([7]; Rate 62 g/ha): 4
- Plant response rating, Bedstraw ([7]; Rate 125 g/ha): 4
- Plant response rating, Bedstraw ([7]; Rate 250 g/ha): 6
- Plant response rating, Corn ([8]; Rate 62 g/ha, Postemergence): 1
- Corn plant response rating ([8]; Rate 62 g/ha): 0
- Plant response rating, Corn ([8]; Rate 125 g/ha, Postemergence): 1
- Corn plant response rating ([8]; Rate 125 g/ha): 0
- Plant response rating, Corn ([8]; Rate 250 g/ha, Postemergence): 1
- Plant response rating, Corn [8, 21]: 0
- Plant response rating, Crabgrass ([9]; Rate 62 g/ha, Postemergence): 1
- Crabgrass plant response rating ([9]; Rate 62 g/ha): 0
- Plant response rating, Crabgrass ([9]; Rate 125 g/ha, Postemergence): 1
- Crabgrass plant response rating ([9]; Rate 125 g/ha): 0
- Plant response rating, Crabgrass ([9]; Rate 250 g/ha, Postemergence): 3
- Plant response rating, Crabgrass [9, 21]: 0
- Wild oats plant response rating ([10]; Rate 62 g/ha, Postemergence): 0
- Wild oats plant response rating ([10]; Rate 62 g/ha, Preemergence): 0
- Wild oats plant response rating ([10]; Rate 125 g/ha, Postemergence): 0
- Plant response rating, Wild oats ([10]; Rate 125 g/ha, Preemergence): 0
- Plant response rating, Wild oats ([10]; Rate 250 g/ha, Postemergence): 1
- Plant response rating, Wild oats [10, 21]: 1
- Plant response rating, Cocklebur ([11]; Rate 62 g/ha, Postemergence): 5
- Cocklebur plant response rating ([11]; Rate 62 g/ha): 0
- Plant response rating, Cocklebur ([11]; Rate 125 g/ha, Postemergence): 2
- Cocklebur plant response rating ([11]; Rate 125 g/ha): 0
- Plant response rating, Cocklebur ([11]; Rate 250 g/ha, Postemergence): 5
- Plant response rating, Cocklebur [11, 21]: 0
- Plant response rating, Sugarbeets ([12]; Rate 62 g/ha, Postemergence): 10
- Sugarbeets plant response rating ([12]; Rate 62 g/ha, Preemergence): 2
- Sugarbeets plant response rating ([12]; Rate 125 g/ha, Postemergence): 10
- Plant response rating, Sugarbeets ([12]; Rate 125 g/ha, Preemergence): 6
- Plant response rating, Sugarbeets ([12]; Rate 250 g/ha, Postemergence): 10
- Plant response rating, Sugarbeets [12, 21]: 6
- Nutsedge plant response rating ([13]; Rate 62 g/ha, Preemergence): 0
- Plant response rating, Nutsedge [13, 21]: 0
- Plant response rating, B. signalgrass ([14]; Rate 62 g/ha, Postemergence): 1
- B. signalgrass plant response rating ([14]; Rate 62 g/ha): 0
- Plant response rating, B. signalgrass ([14]; Rate 125 g/ha, Postemergence): 1
- B. signalgrass plant response rating ([14]; Rate 125 g/ha): 0
- Plant response rating, B. signalgrass ([14]; Rate 250 g/ha, Postemergence): 1
- Plant response rating, B. signalgrass ([14]; Rate 250 g/ha, Postemergence as printed in head r139 (second section for compounds 26-50)): 1
- Plant response rating, Blackgrass ([15]; Rate 62 g/ha, Postemergence): 2
- Blackgrass plant response rating ([15]; Rate 62 g/ha): 0
- Plant response rating, Blackgrass ([15]; Rate 125 g/ha, Postemergence): 2
- Blackgrass plant response rating ([15]; Rate 125 g/ha): 1
- Plant response rating, Blackgrass ([15]; Rate 250 g/ha, Postemergence): 2
- Plant response rating, Blackgrass [15, 21]: 2
- Plant response rating, Rape ([16]; Rate 62 g/ha, Postemergence): 6
- Rape plant response rating ([16]; Rate 62 g/ha, Preemergence): 0
- Rape plant response rating ([16]; Rate 125 g/ha, Postemergence): 6
- Rape plant response rating ([16]; Rate 125 g/ha, Preemergence): 1
- Plant response rating, Rape ([16]; Rate 250 g/ha, Postemergence): 8
- Plant response rating, Rape [16, 21]: 2
- Plant response rating, Barnyardgrass [17, 22]: 2
- Plant response rating, Barnyardgrass [17, 23]: 2
- Plant response rating, Barnyardgrass [17, 24]: 2
- Plant response rating, Rice [18, 22]: 1
- Rice plant response rating [18, 25]: 1
- Plant response rating, Rice [18, 24]: 2
- Plant response rating, Ducksalad [19, 22]: 1
- Plant response rating, Ducksalad [19, 23]: 5
- Plant response rating, Ducksalad [19, 24]: 7
- Plant response rating, S. Flatsedge [20, 22]: 2
- S. Flatsedge plant response rating [20, 25]: 4
- Plant response rating, S. Flatsedge [20, 24]: 5
